Test results published in PubChem BioAssay (NCI).
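Five compound concentrations were applied to cells in 96-well plates for 48 hours; endpoints were derived by simple linear interpolation of the resulting dose-response curve. GI50 is the concentration that inhibits growth by half. At the TGI there is no net growth.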

Key:
Assay in all cases: NCI-60 cell line screen, 48 h
BT-549 breast = test system: BT-549 breast
SF-268 CNS = test system: SF-268 CNS
T-47D breast = test system: T-47D breast
A549 NSCLC = test system: A549 NSCLC
RPMI-8226 leukemia = test system: RPMI-8226 leukemia
MCF7 breast = test system: MCF7 breast
HS 578T breast = test system: HS 578T breast
SW-620 colon = test system: SW-620 colon
UACC-62 melanoma = test system: UACC-62 melanoma
OVCAR-4 ovarian = test system: OVCAR-4 ovarian

## COc1ccc2c(c1)N(Cc1ccc(Cl)cc1)CCC2N1CCCC1=O (configuration not stated)
BT-549 breast
  GI50: 3.23 µM
  TGI: 19.6 µM
SF-268 CNS
  GI50: 5.41 µM
  TGI: > 100 µM
T-47D breast
  GI50: 2.85 µM
  TGI: 26.2 µM
A549 NSCLC
  GI50: 4.48 µM
  TGI: 51.5 µM
RPMI-8226 leukemia
  GI50: 1.46 µM
  TGI: 12.8 µM
MCF7 breast
  GI50: 3.5 µM
  TGI: 25.5 µM
HS 578T breast
  GI50: 2.76 µM
  TGI: 26.5 µM
SW-620 colon
  GI50: 6.48 µM
  TGI: > 100 µM
UACC-62 melanoma
  GI50: 3.25 µM
  TGI: 14.9 µM

## CN(C)Cc1c(O)ccc2c1c1c(n2C)C(=O)c2ccccc2C1=O
BT-549 breast
  TGI: 42.1 µM
SF-268 CNS
  TGI: > 100 µM
T-47D breast
  TGI: > 100 µM
A549 NSCLC
  TGI: > 100 µM
RPMI-8226 leukemia
  TGI: > 100 µM
MCF7 breast
  TGI: > 100 µM
HS 578T breast
  TGI: > 100 µM
SW-620 colon
  TGI: > 100 µM
OVCAR-4 ovarian
  TGI: 32.3 µM
UACC-62 melanoma
  TGI: 18.2 µM

## COc1cc(C2S/C(=C/c3ccccc3)C(=O)N2Cc2ccccc2)cc(OC)c1OC (configuration not stated)
BT-549 breast
  TGI: > 100 µM
SF-268 CNS
  TGI: > 100 µM
T-47D breast
  TGI: 41.1 µM
A549 NSCLC
  TGI: > 100 µM
RPMI-8226 leukemia
  TGI: > 100 µM
MCF7 breast
  TGI: > 100 µM
HS 578T breast
  TGI: > 100 µM
OVCAR-4 ovarian
  TGI: > 100 µM
UACC-62 melanoma
  TGI: > 100 µM

## Cc1ccc(S(=O)(=O)N2CCC[C@@H]2C(=O)O[C@@H]2CCC3CC=CC32)cc1 (some centres not stated)
BT-549 breast
  TGI: 44.3 µM
SF-268 CNS
  TGI: 75 µM
T-47D breast
  TGI: > 100 µM
A549 NSCLC
  TGI: > 100 µM
RPMI-8226 leukemia
  TGI: 61.3 µM
MCF7 breast
  TGI: > 100 µM
HS 578T breast
  TGI: 87.5 µM
SW-620 colon
  TGI: > 100 µM
OVCAR-4 ovarian
  TGI: > 100 µM
UACC-62 melanoma
  TGI: > 100 µM

## COc1cc(C2c3cc4c(cc3OC(NNc3ccccc3)C2C)OCO4)cc(OC)c1OC (configuration not stated)
BT-549 breast
  TGI: 33.4 µM
SF-268 CNS
  TGI: 38.1 µM
T-47D breast
  TGI: > 100 µM
A549 NSCLC
  TGI: > 42.3 µM
RPMI-8226 leukemia
  TGI: 31.8 µM
MCF7 breast
  TGI: > 35.7 µM
HS 578T breast
  TGI: > 43.4 µM
SW-620 colon
  TGI: > 100 µM
OVCAR-4 ovarian
  TGI: > 100 µM
UACC-62 melanoma
  TGI: > 43.5 µM

## CCOC(=O)c1[nH]cc(C)c1-c1cccn1-c1ccc(Cl)cc1[N+](=O)[O-]
BT-549 breast
  TGI: 83.7 µM
SF-268 CNS
  TGI: 61.5 µM
T-47D breast
  TGI: > 100 µM
A549 NSCLC
  TGI: 92.9 µM
MCF7 breast
  TGI: > 100 µM
HS 578T breast
  TGI: 51.2 µM
SW-620 colon
  TGI: > 100 µM
OVCAR-4 ovarian
  TGI: > 100 µM
UACC-62 melanoma
  TGI: 48.2 µM

## CC(=O)OCC1OC(n2cnc3nc(Br)[nH]c(=O)c32)C(OC(C)=O)C1OC(C)=O (configuration not stated)
BT-549 breast
  TGI: > 100 µM
SF-268 CNS
  TGI: > 100 µM
T-47D breast
  TGI: > 100 µM
A549 NSCLC
  TGI: > 100 µM
RPMI-8226 leukemia
  TGI: > 100 µM
MCF7 breast
  TGI: > 100 µM
HS 578T breast
  TGI: > 100 µM
SW-620 colon
  TGI: > 100 µM
OVCAR-4 ovarian
  TGI: > 100 µM
UACC-62 melanoma
  TGI: > 100 µM

## C=C(C)[C@@H](O)[C@H](O)C[C@H](C)C1CC[C@]2(C)C1=CC[C@@H]1[C@@]3(C)CC[C@@H](OC(C)=O)C(C)(C)[C@@H]3C[C@@H](OC3OC(COC(C)=O)C(O)C(O)C3O)[C@]12C (some centres not stated)
BT-549 breast
  TGI: 10.3 µM
SF-268 CNS
  TGI: 9.86 µM
T-47D breast
  TGI: 8.51 µM
A549 NSCLC
  TGI: 12.2 µM
RPMI-8226 leukemia
  TGI: 4.43 µM
MCF7 breast
  TGI: 8.82 µM
HS 578T breast
  TGI: 10 µM
SW-620 colon
  TGI: 12.3 µM
OVCAR-4 ovarian
  TGI: 9.17 µM
UACC-62 melanoma
  TGI: 4.52 µM

## CC(C)NC(=O)OCc1c(COC(=O)NC(C)C)c(-c2ccc[n+](COC(=O)Cc3ccccc3)c2)n2c1CCC2
BT-549 breast
  TGI: 66.6 µM
SF-268 CNS
  TGI: 68 µM
T-47D breast
  TGI: > 100 µM
A549 NSCLC
  TGI: > 100 µM
RPMI-8226 leukemia
  TGI: > 100 µM
MCF7 breast
  TGI: > 100 µM
HS 578T breast
  TGI: > 100 µM
SW-620 colon
  TGI: 50.5 µM
OVCAR-4 ovarian
  TGI: 57.8 µM
UACC-62 melanoma
  TGI: 44.7 µM

## Cc1cc2cc3cc(C)c(N)cc3nc2cc1N
BT-549 breast
  TGI: > 44.5 µM
SF-268 CNS
  TGI: 2.71 µM
T-47D breast
  TGI: 2.43 µM
A549 NSCLC
  TGI: 2.07 µM
RPMI-8226 leukemia
  TGI: 1.31 µM
MCF7 breast
  TGI: 2.71 µM
HS 578T breast
  TGI: 10.5 µM
SW-620 colon
  TGI: 1.6 µM
OVCAR-4 ovarian
  TGI: 1.49 µM
UACC-62 melanoma
  TGI: 2.3 µM

## O=C1c2cc(I)ccc2N2CCN=C2N1Cc1ccccc1
BT-549 breast
  TGI: > 100 µM
SF-268 CNS
  TGI: > 100 µM
T-47D breast
  TGI: > 100 µM
A549 NSCLC
  TGI: > 100 µM
RPMI-8226 leukemia
  TGI: > 100 µM
MCF7 breast
  TGI: > 100 µM
HS 578T breast
  TGI: > 100 µM
SW-620 colon
  TGI: > 100 µM
OVCAR-4 ovarian
  TGI: > 100 µM

## Cn1c2ccc(F)cc2c2ccc3c(c21)C(=O)C=CC3=O
BT-549 breast
  TGI: > 45 µM
SF-268 CNS
  TGI: 58.2 µM
T-47D breast
  TGI: 9 µM
A549 NSCLC
  TGI: > 100 µM
RPMI-8226 leukemia
  TGI: 33.4 µM
MCF7 breast
  TGI: 16.5 µM
HS 578T breast
  TGI: > 86.5 µM
SW-620 colon
  TGI: 8.54 µM
OVCAR-4 ovarian
  TGI: 11.1 µM
UACC-62 melanoma
  TGI: > 61.3 µM

## CC(C)=CC1C(C(=O)Oc2ccccc2C(C)C)C1(C)C (configuration not stated)
BT-549 breast
  TGI: > 100 µM
SF-268 CNS
  TGI: > 100 µM
T-47D breast
  TGI: 50.3 µM
A549 NSCLC
  TGI: > 100 µM
RPMI-8226 leukemia
  TGI: 48.2 µM
MCF7 breast
  TGI: 38 µM
HS 578T breast
  TGI: > 100 µM
SW-620 colon
  TGI: 66 µM
OVCAR-4 ovarian
  TGI: > 100 µM
UACC-62 melanoma
  TGI: > 100 µM

## Nn1c(Nc2ccc(S(N)(=O)=O)cc2)nnc(/C=C/c2c(O)ccc3ccccc23)c1=O
BT-549 breast
  TGI: 40.4 µM
SF-268 CNS
  TGI: > 100 µM
T-47D breast
  TGI: 40.6 µM
A549 NSCLC
  TGI: 92.4 µM
RPMI-8226 leukemia
  TGI: 26.7 µM
MCF7 breast
  TGI: 43 µM
HS 578T breast
  TGI: > 100 µM
SW-620 colon
  TGI: 45.3 µM
OVCAR-4 ovarian
  TGI: 47.5 µM
UACC-62 melanoma
  TGI: 49.9 µM

## CC(C)C(Nc1ncnc2nc[nH]c12)C(=O)O (configuration not stated)
BT-549 breast
  TGI: > 100 µM
SF-268 CNS
  TGI: > 100 µM
T-47D breast
  TGI: > 100 µM
A549 NSCLC
  TGI: > 100 µM
RPMI-8226 leukemia
  TGI: > 100 µM
MCF7 breast
  TGI: > 100 µM
HS 578T breast
  TGI: > 100 µM
SW-620 colon
  TGI: > 100 µM
OVCAR-4 ovarian
  TGI: > 100 µM
UACC-62 melanoma
  TGI: > 100 µM

## CC#C[C@]1(O)CCC2[C@@H]3CCC4=CC(=O)CCC4=C3[C@@H](c3ccc(N(C)C)cc3)C[C@@]21C (some centres not stated)
BT-549 breast
  TGI: 50.7 µM
SF-268 CNS
  TGI: 27.6 µM
T-47D breast
  TGI: > 100 µM
A549 NSCLC
  TGI: > 100 µM
RPMI-8226 leukemia
  TGI: 7.15 µM
MCF7 breast
  TGI: 20.8 µM
HS 578T breast
  TGI: 33.9 µM
SW-620 colon
  TGI: > 100 µM
OVCAR-4 ovarian
  TGI: 33.5 µM
UACC-62 melanoma
  TGI: 18.6 µM

## COc1ccc2c(c1)CC[C@@H]1C2CC[C@]2(C)C(=O)N(CCN(C)C)C(=O)CC12 (some centres not stated)
BT-549 breast
  TGI: > 100 µM
SF-268 CNS
  TGI: > 100 µM
T-47D breast
  TGI: > 100 µM
A549 NSCLC
  TGI: > 100 µM
MCF7 breast
  TGI: > 100 µM
HS 578T breast
  TGI: > 100 µM
SW-620 colon
  TGI: > 100 µM
OVCAR-4 ovarian
  TGI: > 100 µM
UACC-62 melanoma
  TGI: > 100 µM

## CSc1ncc2c(n1)-c1ccccc1OC2N1CCOCC1 (configuration not stated)
BT-549 breast
  TGI: > 100 µM
SF-268 CNS
  TGI: > 100 µM
T-47D breast
  TGI: 80.3 µM
A549 NSCLC
  TGI: > 100 µM
RPMI-8226 leukemia
  TGI: > 100 µM
MCF7 breast
  TGI: > 100 µM
HS 578T breast
  TGI: > 100 µM
SW-620 colon
  TGI: > 100 µM
OVCAR-4 ovarian
  TGI: > 100 µM
UACC-62 melanoma
  TGI: > 100 µM

## Cc1cc2nc3c(C#N)c4c(c(Nc5ccc(F)cc5)n3c2cc1C)CCC4
BT-549 breast
  TGI: > 100 µM
SF-268 CNS
  TGI: > 100 µM
T-47D breast
  TGI: > 100 µM
A549 NSCLC
  TGI: > 100 µM
RPMI-8226 leukemia
  TGI: > 100 µM
MCF7 breast
  TGI: > 100 µM
HS 578T breast
  TGI: > 100 µM
SW-620 colon
  TGI: > 100 µM
OVCAR-4 ovarian
  TGI: > 100 µM
UACC-62 melanoma
  TGI: > 100 µM

## CCOC(=O)c1c(NS(=O)(=O)c2ccc(C)cc2)sc2c1CCCC2
BT-549 breast
  TGI: > 100 µM
SF-268 CNS
  TGI: > 100 µM
T-47D breast
  TGI: > 100 µM
A549 NSCLC
  TGI: > 100 µM
RPMI-8226 leukemia
  TGI: 45.9 µM
MCF7 breast
  TGI: > 100 µM
HS 578T breast
  TGI: > 100 µM
UACC-62 melanoma
  TGI: 56.5 µM
